From patent publication US7504393B2, “Benzylamine analogues” (priority 2001, dated 2009)
Structures can show the parent of a compound that is named as a salt. Where two headings read alike, the source gives them in different places.

What was measured:
serotonin re-uptake = target: T1, serotonin re-uptake (Rattus norvegicus, UniProt P31652); experiment: Serotonin re-uptake inhibitory activity (synaptosome, [3H]5-HT); format: biochemical
T1 construct: synaptosome prepared from rat whole brains except the cerebellums; from tissue; host or cells: synaptosomes from rat whole brain except the cerebellum
T1 sequence (P31652 whole entry): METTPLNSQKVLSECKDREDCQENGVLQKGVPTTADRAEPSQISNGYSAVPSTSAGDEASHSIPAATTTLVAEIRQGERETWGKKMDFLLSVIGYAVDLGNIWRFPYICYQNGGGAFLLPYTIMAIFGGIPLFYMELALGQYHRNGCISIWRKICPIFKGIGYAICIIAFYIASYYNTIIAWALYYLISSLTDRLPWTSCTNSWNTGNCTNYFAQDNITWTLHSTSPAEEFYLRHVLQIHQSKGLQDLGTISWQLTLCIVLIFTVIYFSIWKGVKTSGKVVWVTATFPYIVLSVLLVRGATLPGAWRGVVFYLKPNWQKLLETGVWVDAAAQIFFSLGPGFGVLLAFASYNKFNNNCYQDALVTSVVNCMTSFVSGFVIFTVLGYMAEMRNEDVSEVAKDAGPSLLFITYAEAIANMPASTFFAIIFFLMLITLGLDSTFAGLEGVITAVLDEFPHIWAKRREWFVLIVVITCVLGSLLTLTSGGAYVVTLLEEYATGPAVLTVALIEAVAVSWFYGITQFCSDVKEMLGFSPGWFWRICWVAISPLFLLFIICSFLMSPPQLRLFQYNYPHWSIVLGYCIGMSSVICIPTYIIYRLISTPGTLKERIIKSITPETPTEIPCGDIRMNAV
Experimental: Serotonin re-uptake inhibitory activity was determined using synaptosome prepared from rat whole brains except the cerebellums. Briefly, 10 μl of DMSO solution-dissolved test substance (control group; DMSO solution alone) was added to 1 ml of synaptosome and incubated for 5 min at 37° C. (in the control, DMSO alone was added to the synaptosome and incubated at 4° C.). Furthermore, 10 μl of [^3H]5-HT solution (final concentration: 10 μM as a total concentration of 5-HT, 100 nM as [^3H]5-HT) was added and incubated for 5 min at 37° C. Then 4 ml of ice-cold saline was added to stop the response. The response solution was filtered, 4 ml of saline was added, and the solution was once again filtered. Furthermore, 5 ml of Pico-Fluor was added, then ^3H levels on filter papers were counted by a liquid scintillation counter. Concentrations of test compounds to inhibit serotonin re-uptake by 50% (IC50) were calculated.

acetylcholinesterase = target: T2, acetylcholinesterase (Mus musculus, UniProt P21836); experiment: biochemical
T2 construct: phosphate buffer solution containing the brain homogenate; from tissue; host or cells: mouse whole brain homogenate
T2 sequence (P21836 32-614): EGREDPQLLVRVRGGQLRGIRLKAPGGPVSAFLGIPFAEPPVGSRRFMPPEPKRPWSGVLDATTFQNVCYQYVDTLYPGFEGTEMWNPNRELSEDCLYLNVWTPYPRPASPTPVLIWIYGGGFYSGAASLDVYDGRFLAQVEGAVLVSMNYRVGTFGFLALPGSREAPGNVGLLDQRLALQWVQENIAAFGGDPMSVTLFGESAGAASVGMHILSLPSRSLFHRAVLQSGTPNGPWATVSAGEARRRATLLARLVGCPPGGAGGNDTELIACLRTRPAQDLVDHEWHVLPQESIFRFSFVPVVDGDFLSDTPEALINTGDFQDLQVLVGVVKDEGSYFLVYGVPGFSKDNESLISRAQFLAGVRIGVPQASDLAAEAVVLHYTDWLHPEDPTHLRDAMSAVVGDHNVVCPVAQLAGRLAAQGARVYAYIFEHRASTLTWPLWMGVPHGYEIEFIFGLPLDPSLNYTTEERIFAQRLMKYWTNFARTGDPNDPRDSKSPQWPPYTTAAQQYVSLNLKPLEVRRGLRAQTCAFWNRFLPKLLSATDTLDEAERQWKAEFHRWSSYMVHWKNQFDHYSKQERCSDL

[1] = synaptosome from rat whole brain except cerebellum, [3H]5-HT, 37° C., read-out: IC50 (nM) Serotonin re-uptake inhibitory activity

## 2-Methyl-1-[2-(4-methylthiophenoxy)-ethyl]-2,3-dihydro-1H-benzo[c]azepin-7-yl dimethylcarbamate hydrochloride [Test Compound 196]
Serotonin re-uptake; [1]
  IC50: 18 nM

## 2-Methyl-(1R)-[2-(4-methylthiophenoxy)-ethyl]-2,3-dihydro-1H-benzo[c]azepin-7-yl dimethylcarbamate hydrochloride [Test Compound 197]
Serotonin re-uptake; [1]
  IC50: 6 nM

## 4-[3-(4-Chlorophenoxy)-1-dimethylaminopropyl]-2-methylphenyl dimethylcarbamate hydrochloride [Test Compound 185]
Serotonin re-uptake; [1]
  IC50: 170 nM

## 4-[3-(4-Methylthiophenoxy)-1-dimethylaminopropyl]-2-methylphenyl dimethylcarbamate hydrochloride [Test Compound 186]
Serotonin re-uptake; [1]
  IC50: 62 nM

## 4-[3-(4-Methylthiophenoxy)-1-dimethylaminopropyl]phenyl dimethylcarbamate hydrochloride [Test Compound 175]
Serotonin re-uptake; [1]
  IC50: 380 nM

## 4-[3-(4-Methylthiophenoxy)-1-methylaminopropyl]phenyl dimethylcarbamate hydrochloride [Test Compound 174]
Serotonin re-uptake; [1]
  IC50: 85 nM

## 4-[3-(4-Nitrophenoxy)-1-dimethylaminopropyl]-2-methylphenyl dimethylcarbamate hydrochloride [Test Compound 182]
Serotonin re-uptake; [1]
  IC50: 44 nM

## CNC(CCOc1ccc(Cl)cc1)c1ccc(OC(=O)N(C)C)cc1 (stereo not drawn) [Test Compound 16, 4-[3-(4-Chlorophenoxy)-1-methylaminopropyl]phenyl dimethylcarbamate hydrochloride]
acetylcholinesterase
  IC50: 210 nM
Serotonin re-uptake; [1]
  IC50: 493 nM

## CNC(CCOc1ccc(F)cc1)c1ccc(OC(=O)N(C)C)cc1 (stereo not drawn) [Test Compound 30, 4-[3-(4-Fluorophenoxy)-1-methylaminopropyl]phenyl dimethylcarbamate hydrochloride]
acetylcholinesterase
  IC50: 790 nM
Serotonin re-uptake; [1]
  IC50: 594 nM

## CN(C)C(=O)Oc1ccc(C(CCOc2ccc(F)cc2)N(C)C)cc1 (stereo not drawn) [Test Compound 31, hydrochloride]
acetylcholinesterase; mouse whole brain homogenate, acetylthiocholine/DTNB, absorbance 412 nm, read-out: IC50 (nM) Acetylcholinesterase inhibitory activity
  IC50: 440 nM
Serotonin re-uptake; [1]
  IC50: 323 nM

## CNC(CCOc1cccc(Cl)c1)c1ccc(OC(=O)N(C)C)cc1 (stereo not drawn) [Test Compound 38, 4-[3-(3-chlorophenoxy)-1-methylaminopropyl]phenyl dimethylcarbamate hydrochloride]
acetylcholinesterase
  IC50: 175 nM
Serotonin re-uptake; [1]
  IC50: 199 nM

## CN(C)C(=O)Oc1ccc(C(CCOc2ccc(Cl)cc2)N(C)C)cc1 (stereo not drawn) [Test Compound 41, 4-[3-(4-Chlorophenoxy)-1-dimethylaminopropyl]phenyl dimethylcarbamate hydrochloride]
acetylcholinesterase
  IC50: 79 nM
Serotonin re-uptake; [1]
  IC50: 507 nM

## CNC(CCOc1ccc(F)c(F)c1)c1ccc(OC(=O)N(C)C)cc1 (stereo not drawn) [Test Compound 54, 4-[3-(3,4-Difluorophenoxy)-1-methylaminopropyl]phenyl dimethylcarbamate hydrochloride]
acetylcholinesterase
  IC50: 670 nM
Serotonin re-uptake; [1]
  IC50: 166 nM

## CNC(CCOc1ccc(Cl)c(F)c1)c1ccc(OC(=O)N(C)C)cc1 (stereo not drawn) [Test Compound 55, 4-[3-(4-Chloro-3-fluorophenoxy)-1-methylaminopropyl]phenyl dimethylcarbamate hydrochloride]
acetylcholinesterase
  IC50: 280 nM
Serotonin re-uptake; [1]
  IC50: 60 nM

## CN[C@H](CCOc1cccc(Cl)c1)c1ccc(OC(=O)N(C)C)cc1 [Test Compound 61, (R)-4-[3-(3-Chlorophenoxy)-1-methylaminopropyl]phenyl dimethylcarbamate hydrochloride]
acetylcholinesterase
  IC50: 230 nM
Serotonin re-uptake; [1]
  IC50: 182 nM

## CN[C@H](CCOc1ccc(Cl)cc1)c1ccc(OC(=O)N(C)C)cc1 [Test Compound 62, (R)-4-[3-(4-Chlorophenoxy)-1-methylaminopropyl]phenyl dimethylcarbamate hydrochloride]
acetylcholinesterase
  IC50: 270 nM
Serotonin re-uptake; [1]
  IC50: 343 nM

## CNC(CCOc1cccc(F)c1)c1ccc(OC(=O)N(C)C)cc1 (stereo not drawn) [Test Compound 68, 4-[3-(3-Fluorophenoxy)-1-methylaminopropyl]phenyl dimethylcarbamate hydrochloride]
acetylcholinesterase
  IC50: 580 nM
Serotonin re-uptake; [1]
  IC50: 145 nM

## CN(C)C(=O)Oc1ccc(C(CCOc2cccc(F)c2)N(C)C)cc1 (stereo not drawn) [Test Compound 70, 4-[1-Dimethylamino-3-(3-fluorophenoxy)propyl]phenyl dimethylcarbamate hydrochloride]
acetylcholinesterase
  IC50: 90 nM
Serotonin re-uptake; [1]
  IC50: 86 nM

## CN(C)C(=O)Oc1ccc(C(CCOc2ccc(F)c(F)c2)N(C)C)cc1 (stereo not drawn) [Test Compound 76, 4-[3-(3,4-Difluorophenoxy)-1-dimethylaminopropyl]phenyl dimethylcarbamate hydrochloride]
acetylcholinesterase
  IC50: 300 nM
Serotonin re-uptake; [1]
  IC50: 124 nM

## CN[C@@H](CCOc1cccc(Cl)c1)c1ccc(OC(=O)N(C)C)cc1 [Test Compound 81, (S)-4-[3-(3-Chlorophenoxy)-1-methylaminopropyl]phenyl dimethylcarbamate hydrochloride]
acetylcholinesterase
  IC50: 320 nM
Serotonin re-uptake; [1]
  IC50: 228 nM

## CN[C@@H](CCOc1ccc(Cl)cc1)c1ccc(OC(=O)N(C)C)cc1 [Test Compound 82, (S)-4-[3-(4-Chlorophenoxy)-1-methylaminopropyl]phenyl dimethylcarbamate hydrochloride]
acetylcholinesterase
  IC50: 83 nM
Serotonin re-uptake; [1]
  IC50: 377 nM

## CN(C)C(=O)Oc1ccc(C(CCOc2ccc([N+](=O)[O-])cc2)N(C)C)cc1 (stereo not drawn) [Test Compound 89, 4-[1-Dimethylamino-3-(4-nitrophenoxy)propyl]phenyl dimethylcarbamate hydrochloride]
acetylcholinesterase
  IC50: 87 nM
Serotonin re-uptake; [1]
  IC50: 319 nM

## CNC(CCOc1ccc([N+](=O)[O-])cc1)c1cccc(OC(=O)N(C)C)c1 (stereo not drawn) [Test Compound 95, 3-[1-Methylamino-3-(4-nitrophenoxy)propyl]phenyl dimethylcarbamate hydrochloride]
acetylcholinesterase
  IC50: 52 nM
Serotonin re-uptake; [1]
  IC50: 221 nM

## CN(C)C(=O)Oc1ccc2c(c1)C=CCN(C)C2CCOc1ccc([N+](=O)[O-])cc1 (stereo not drawn) [Test Compound 192, 2-Methyl-1-[2-(4-nitrophenoxy)-ethyl]-2,3-dihydro-1H-benzo[c]azepin-7-yl dimethylcarbamate hydrochloride]
Serotonin re-uptake; [1]
  IC50: 63 nM

## CN(C)C(=O)Oc1ccc2c(c1)C=CCN(C)[C@@H]2CCOc1ccc([N+](=O)[O-])cc1 [Test Compound 199, 2-Methyl-[[(1S)]] (1R)-[2-(4-nitrophenoxy)-ethyl]-2,3-dihydro-1H-benzo[c]azepin-7-yl dimethylcarbamate hydrochloride]
Serotonin re-uptake; [1]
  IC50: 6 nM

## CN(C)C(=O)Oc1ccc2c(c1)C=CCN(C)[C@H]2CCOc1ccc([N+](=O)[O-])cc1 [Test Compound 200, 2-Methyl-(1S)-[2-(4-nitrophenoxy)-ethyl]-2,3-dihydro-1H-benzo[c]azepin-7-yl dimethylcarbamate hydrochloride]
Serotonin re-uptake; [1]
  IC50: 930 nM

## Cc1cc(OCCC2c3cccc(OC(=O)N(C)C)c3C=CCN2C)ccc1Cl (stereo not drawn) [Test Compound 202, 2-Methyl-[2-(4-chloro-3-methylphenoxy)-ethyl]-2,3-dihydro-1H-benzo[c]azepin-6-yl dimethylcarbamate hydrochloride]
Serotonin re-uptake
  IC50: 900 nM

## (R)-4-[3-(4-Methylthiophenoxy)-1-methylaminopropyl]phenyl dimethylcarbamate hydrochloride [Test Compound 177]
Serotonin re-uptake; [1]
  IC50: 120 nM

## (S)-4-[3-(4-Methylthiophenoxy)-1-methylaminopropyl]phenyl dimethylcarbamate hydrochloride [Test Compound 176]
Serotonin re-uptake; [1]
  IC50: 56 nM
